Assays:
[1] = biological target: T1, FMDV 3Cpro (Foot-and-mouth disease virus A, UniProt A0A097I315); assay: biochemical; design: species or system FMDV A/IND287/96 strain (serotype A); settings: FRET assay (IC50)
[2] = biological target: T1, FMDV 3Cpro; assay: cell-based; design: species or system FMDV A/IND287/96 strain; settings: Cell-based assay (EC50)
[3] = in vitro; settings: human

Compound	IC50 [1]	EC50 [2]	CC50 [3]
CC(C)C[C@H](NC(=O)OCC(C)(C)Oc1cccc(Cl)c1)C(=O)N[C@H](C=O)C[C@@H]1CCNC1=O [Compound D13c]	0.67 ± 0.08 µM	5.34 ± 1.19 µM	> 50 µM
CC(C)C[C@H](NC(=O)OC[C@@H]1C[C@H]1c1ccc(F)cc1)C(=O)N[C@@H](C[C@H]1CCNC1=O)C(O)S(=O)(=O)O (some centres unmarked) [Compound C7d]	0.75 ± 0.07 µM	2.15 ± 0.35 µM	> 50 µM
[2H]C([2H])(OC(=O)N[C@@H](CC(C)C)C(=O)N[C@H](C=O)C[C@@H]1CCNC1=O)C(C)(C)Oc1cccc(Cl)c1 [Compound D14c]	0.5 ± 0.14 µM	3.38 ± 0.39 µM	> 50 µM
CC(C)C[C@H](NC(=O)OC[C@@H]1C[C@H]1c1cccc(Cl)c1)C(=O)N[C@H](C=O)C[C@H]1CCNC1=O [Compound C6c]	0.8 ± 0.05 µM	3.3 ± 0.71 µM	> 50 µM
CC(C)C[C@H](NC(=O)OC[C@@H]1C[C@H]1C1CCC(F)(F)CC1)C(=O)N[C@H](C=O)C[C@H]1CCNC1=O [Compound C17c]	0.65 ± 0.07 µM	> 10 µM	> 50 µM
CC(C)C[C@H](NC(=O)OCc1ccccc1)C(=O)N[C@@H](C[C@@H]1CCNC1=O)C(=O)C(=O)NC(C)(C)C [Compound E6g]	1.5 ± 0.1 µM	5.8 ± 0.3 µM	> 50 µM
CCOC(=O)CNC(=O)C(=O)[C@H](C[C@@H]1CCNC1=O)NC(=O)[C@H](CC(C)C)NC(=O)OCc1ccccc1 [Compound E6d]	2.2 ± 0.05 µM	9.2 ± 0.1 µM	> 50 µM
CC(C)C[C@H](NC(=O)OCCSc1ccccc1)C(=O)N[C@@H](C[C@@H]1CCNC1=O)C(O)S(=O)(=O)O (some centres unmarked) [Compound D8d]	1.03 ± 0.24 µM	1.95 ± 0.22 µM	> 50 µM
CC(C)C[C@H](NC(=O)OC[C@@H]1C[C@H]1C1CCCCC1)C(=O)N[C@H](C=O)C[C@H]1CCNC1=O [Compound C15c]	0.38 ± 0.11 µM	0.45 ± 0.05 µM	> 50 µM
CC(C)C[C@H](NC(=O)[C@H](Cc1cccc2ccccc12)NC(=O)OCc1ccccc1)C(=O)N[C@H](C=O)C[C@@H]1CCNC1=O [Compound E1]	0.05 ± 0.08 µM	0.11 ± 0.05 µM	> 50 µM
COc1cccc([C@@H]2C[C@H]2COC(=O)N[C@@H](CC(C)C)C(=O)N[C@@H](C[C@H]2CCNC2=O)C(O)S(=O)(=O)O)c1 (some centres unmarked) [Compound C9d]	0.84 ± 0.06 µM	2.05 ± 0.64 µM	> 50 µM
CC(C)C[C@H](NC(=O)OC[C@H]1[C@H](c2ccccc2)C1(F)F)C(=O)N[C@H](C=O)C[C@H]1CCNC1=O [Compound C2c]	1.35 ± 0.64 µM	1.2 ± 0.14 µM	> 50 µM
CC(C)C[C@H](NC(=O)OCC(C)(C)Sc1ccc(F)cc1)C(=O)N[C@@H](C[C@@H]1CCNC1=O)C(O)S(=O)(=O)O (some centres unmarked) [Compound D6d]	0.98 ± 0.11 µM	5.85 ± 0.35 µM	> 50 µM
CC(C)C[C@H](NC(=O)OC[C@H]1[C@H](Cc2ccccc2)C1(F)F)C(=O)N[C@@H](C[C@H]1CCNC1=O)C(O)S(=O)(=O)O (some centres unmarked) [Compound C4d]	1.35 ± 0.35 µM	3.65 ± 0.63 µM	> 50 µM
CC(C)C[C@H](NC(=O)OCC(C)(C)Oc1ccc(Cl)cc1)C(=O)N[C@H](C=O)C[C@@H]1CCNC1=O [Compound D11c]	0.69 ± 0.06 µM	0.64 ± 0.15 µM	> 50 µM
CC(C)C[C@H](NC(=O)OCC(C)(O)c1cccc(Cl)c1)C(=O)N[C@H](C=O)C[C@@H]1CCNC1=O (some centres unmarked) [Compound D17c]	2 ± 0.71 µM		> 50 µM
COc1ccccc1[C@@H]1C[C@@H]1COC(=O)N[C@@H](CC(C)C)C(=O)N[C@@H](C[C@H]1CCNC1=O)C(O)S(=O)(=O)O (some centres unmarked) [Compound C12d]	0.51 ± 0.06 µM	1.25 ± 0.07 µM	> 50 µM
CC(C)C[C@H](NC(=O)OCc1ccccc1)C(=O)N[C@@H](C[C@@H]1CCNC1=O)C(=O)C(=O)NC1CC1 [Compound E6b]	2.4 ± 0.09 µM	8.8 ± 0.3 µM	> 50 µM
CC(C)C[C@H](NC(=O)OC[C@@H]1C[C@H]1C1CCC(F)(F)CC1)C(=O)N[C@@H](C[C@H]1CCNC1=O)C(O)S(=O)(=O)O (some centres unmarked) [Compound C17d]	0.75 ± 0.09 µM	> 10 µM	> 50 µM
CC(C)C[C@H](NC(=O)OCC(C)(C)Oc1ccccc1)C(=O)N[C@H](C=O)C[C@@H]1CCNC1=O [Compound D10c]	0.74 ± 0.08 µM		> 50 µM
CC(C)C[C@H](NC(=O)OCC(C)(C)Sc1ccc(F)cc1)C(=O)N[C@H](C=O)C[C@@H]1CCNC1=O [Compound D6c]	0.91 ± 0.15 µM	5.15 ± 0.64 µM	> 50 µM
CC(C)C[C@H](NC(=O)OCC(C)(C)Oc1ccc(Cl)cc1)C(=O)N[C@@H](C[C@@H]1CCNC1=O)C(O)S(=O)(=O)O (some centres unmarked) [Compound D11d]	0.49 ± 0.05 µM	0.98 ± 1.11 µM	> 50 µM
CCC[C@@H]1C[C@@H]1COC(=O)N[C@@H](CC(C)C)C(=O)N[C@H](C=O)C[C@H]1CCNC1=O [Compound C14c]	0.63 ± 0.1 µM	7.05 ± 0.78 µM	> 50 µM
CC(C)C[C@H](NC(=O)OC[C@H]1[C@H](c2ccccc2)C1(F)F)C(=O)N[C@@H](C[C@H]1CCNC1=O)C(O)S(=O)(=O)O (some centres unmarked) [Compound C2d]	1.1 ± 0.57 µM	1.45 ± 0.21 µM	> 50 µM

Compound	IC50 [1]	EC50 [2]	CC50 [3]
COc1ccc([C@@H]2C[C@H]2COC(=O)N[C@@H](CC(C)C)C(=O)N[C@@H](C[C@H]2CCNC2=O)C(O)S(=O)(=O)O)cc1 (some centres unmarked) [Compound C10d]	1.05 ± 0.21 µM	2.85 ± 1.55 µM	> 50 µM
CC(C)C[C@H](NC(=O)OC[C@@H]1C[C@H]1CC1CCCCC1)C(=O)N[C@@H](C[C@H]1CCNC1=O)C(O)S(=O)(=O)O (some centres unmarked) [Compound C16d]	0.33 ± 0.04 µM	1.21 ± 0.48 µM	> 50 µM
CCC[C@@H]1C[C@H]1COC(=O)N[C@@H](CC(C)C)C(=O)N[C@H](C=O)C[C@H]1CCNC1=O [Compound C13c]	1.55 ± 0.07 µM	2.95 ± 0.21 µM	> 50 µM
CC(C)C[C@H](NC(=O)OCC(C)(O)c1cccc(Cl)c1)C(=O)N[C@@H](C[C@@H]1CCNC1=O)C(O)S(=O)(=O)O (some centres unmarked) [Compound D17d]	0.9 ± 0.28 µM		> 50 µM
CC(C)C[C@H](NC(=O)OCC(C)(C)S(=O)(=O)c1ccccc1)C(=O)N[C@H](C=O)C[C@@H]1CCNC1=O [Compound D4c]	0.9 ± 0.28 µM	> 10 µM	> 50 µM
[2H]C([2H])(OC(=O)N[C@@H](CC(C)C)C(=O)N[C@@H](C[C@@H]1CCNC1=O)C(O)S(=O)(=O)[O-])C(C)(C)Sc1ccccc1.[Na+] (some centres unmarked) [Compound D2d]	1.15 ± 0.07 µM	2.91 ± 0.43 µM	> 50 µM
CC(C)C[C@H](NC(=O)OCC(C)(C)Sc1ccccc1)C(=O)N[C@@H](C[C@@H]1CCNC1=O)C(=O)C(=O)NC1CC1 [Compound D1e]	3.75 ± 0.07 µM	5 ± 0.28 µM	> 50 µM
CC(C)C[C@H](NC(=O)OCC(C)(C)S(=O)(=O)c1ccccc1)C(=O)N[C@@H](C[C@@H]1CCNC1=O)C(O)S(=O)(=O)O (some centres unmarked) [Compound D4d]	0.65 ± 0.09 µM	> 10 µM	> 50 µM
CC(C)C[C@H](NC(=O)OC[C@@H]1C[C@H]1CC1CCCCC1)C(=O)N[C@H](C=O)C[C@H]1CCNC1=O [Compound C16c]	0.36 ± 0.09 µM	0.9 ± 0.06 µM	> 50 µM
CC(C)C[C@H](NC(=O)OC[C@@H]1C[C@H]1C1CCCCC1)C(=O)N[C@@H](C[C@H]1CCNC1=O)C(O)S(=O)(=O)O (some centres unmarked) [Compound C15d]	0.29 ± 0.08 µM	0.5 ± 0.11 µM	> 50 µM
CC(C)C[C@H](NC(=O)OCC(C)(C)Sc1cccc(F)c1)C(=O)N[C@@H](C[C@@H]1CCNC1=O)C(O)S(=O)(=O)O (some centres unmarked) [Compound D5d]	0.81 ± 0.07 µM		> 50 µM
CC(C)C[C@H](NC(=O)OCc1ccccc1)C(=O)N[C@@H](C[C@@H]1CCNC1=O)C(=O)C(=O)NC(C)C [Compound E6a]	3.9 ± 0.2 µM		> 50 µM
CC(C)C[C@H](NC(=O)OCC(C)(C)Sc1nc2ccccc2[nH]1)C(=O)N[C@H](C=O)C[C@@H]1CCNC1=O [Compound D9c]	2.15 ± 0.34 µM	> 10 µM	> 50 µM
CC(C)C[C@H](NC(=O)OCc1ccccc1)C(=O)N[C@@H](C[C@@H]1CCNC1=O)C(=O)c1ncco1 [Compound E8a]	3.4 ± 0.08 µM	8.2 ± 0.09 µM	> 50 µM
CC(C)C[C@H](NC(=O)OCC(C)(C)Oc1cccc(F)c1)C(=O)N[C@@H](C[C@@H]1CCNC1=O)C(O)S(=O)(=O)O (some centres unmarked) [Compound D16d]	0.69 ± 0.02 µM	5.05 ± 0.21 µM	> 50 µM
[2H]C([2H])(OC(=O)N[C@@H](CC(C)C)C(=O)N[C@H](C=O)C[C@@H]1CCNC1=O)C(C)(C)Oc1ccc(Cl)cc1 [Compound D12c]	0.14 ± 0.02 µM	0.35 ± 0.1 µM	> 50 µM
COc1ccc([C@@H]2C[C@H]2COC(=O)N[C@@H](CC(C)C)C(=O)N[C@H](C=O)C[C@H]2CCNC2=O)cc1 [Compound C10c]	1.25 ± 0.07 µM	3.65 ± 1.48 µM	> 50 µM
CC(C)C[C@H](NC(=O)OC[C@@H]1C[C@H]1c1cccc(F)c1)C(=O)N[C@@H](C[C@H]1CCNC1=O)C(O)S(=O)(=O)O (some centres unmarked) [Compound C5d]	0.95 ± 0.22 µM	1.89 ± 0.09 µM	> 50 µM
CC(C)C[C@H](NC(=O)OC[C@@H]1C[C@H]1c1ccc(Cl)cc1)C(=O)N[C@@H](C[C@H]1CCNC1=O)C(O)S(=O)(=O)O (some centres unmarked) [Compound C8d]	0.55 ± 0.07 µM		> 50 µM
CC(C)C[C@H](NC(=O)OCc1ccccc1)C(=O)N[C@@H](C[C@@H]1CCNC1=O)C(=O)C(=O)NC1CCCCC1 [Compound E6e]	2.8 ± 0.1 µM		> 50 µM
CC(C)C[C@H](NC(=O)OC[C@H]1[C@H](Cc2ccccc2)C1(F)F)C(=O)N[C@H](C=O)C[C@H]1CCNC1=O [Compound C4c]	0.82 ± 0.15 µM		> 50 µM
CC(C)C[C@H](NC(=O)OCC(C)(C)Oc1ccccc1)C(=O)N[C@@H](C[C@@H]1CCNC1=O)C(O)S(=O)(=O)O (some centres unmarked) [Compound D10d]	0.7 ± 0.28 µM		> 50 µM
CC(C)C[C@H](NC(=O)OC[C@@H]1C[C@H]1c1ccc(Cl)cc1)C(=O)N[C@H](C=O)C[C@H]1CCNC1=O [Compound C8c]	1.15 ± 0.08 µM		> 50 µM

Reference: article PMC10986521 (Microbiology Spectrum, 2024)
